Legend:
[1] = 101 kPa, Liquid; for viscosity: Capillary tube (Ostwald / Ubbelohde) method
[2] = mn = molality of the nth substance listed, in mol/kg; details: 101 kPa, Liquid, m2 = 0; for viscosity: Capillary tube (Ostwald / Ubbelohde) method

CC#N [acetonitrile]
[1]
Details	mass density [kg/m3]	viscosity [mPa·s]
293.15 K	782.499	0.3081
298.15 K	777.099	0.2857
303.15 K	771.674	0.2642
308.15 K	766.217	0.2444
310.15 K	763.991	0.2374
313.15 K	760.702	0.2267

CC#N [acetonitrile] + O=C(Oc1ccccc1)c1ccccc1O
[2]
Details	mass density [kg/m3]	viscosity [mPa·s]
293.15 K	782.499	0.3081
298.15 K	777.099	0.2857
303.15 K	771.674	0.2642
308.15 K	766.217	0.2444
310.15 K	763.991	0.2374
313.15 K	760.702	0.2267

Source: the NIST ThermoML archive (doi:10.1021/je8003595)
